# Species: Rattus norvegicus
# Assay: Open TG-GATES - Regimen: Single
# Assay type: toxicity, organism-based, Sprague-Dawley
# Design: regimen Single, gender Male, age 6 weeks
# Settings: in vivo, po, route gavage; for TC / TP / gamma-GTP / ALP / ALT / AST / BUN / CRE / Cl / IP / LDH / PL / RALB / TBIL / Ca / DBIL / K / Na: tissue Plasma; for APTT / Bas / Eos / Fbg / Hb / Ht / Lym / MCH / MCHC / MCV / Mono / PT / Plat / RBC / Ret / WBC: tissue Blood; for KIDNEY_L / KIDNEY_R / KIDNEY_TOTAL: tissue Kidney; for LIVER: tissue Liver
# [1] = 0 mg/kg, 24 h, dose level Control
compound,measurement,setting,value
C#C[C@]1(O)CC[C@H]2[C@@H]3CCc4cc(O)ccc4[C@H]3CC[C@@]21C [ETHINYL ESTRADIOL],TC,[1],84.6 mg/dL
same,TP,[1],5.4 g/dL
same,gamma-GTP,[1],0.8 IU/L
same,TERMINAL_BW,"1 mg/kg, 3 h, dose level Low",195 g
same,APTT,"1 mg/kg, 3 h, dose level Low",16.3 s
same,Bas,"1 mg/kg, 3 h, dose level Low",0%
same,Eos,"1 mg/kg, 3 h, dose level Low",1%
same,Fbg,"1 mg/kg, 3 h, dose level Low",258.2 mg/dL
same,Hb,"1 mg/kg, 3 h, dose level Low",13 g/dL
same,Ht,"1 mg/kg, 3 h, dose level Low",39.1%
same,Lym,"1 mg/kg, 3 h, dose level Low",80.2%
same,MCH,"1 mg/kg, 3 h, dose level Low",21.9 pg
same,MCHC,"1 mg/kg, 3 h, dose level Low",33.4%
same,MCV,"1 mg/kg, 3 h, dose level Low",65.4 fL
same,Mono,"1 mg/kg, 3 h, dose level Low",3.4%
same,PT,"1 mg/kg, 3 h, dose level Low",12.3 s
same,Plat,"1 mg/kg, 3 h, dose level Low",118.9 x10_4/uL
same,RBC,"1 mg/kg, 3 h, dose level Low",598.2 x10_4/ul
same,Ret,"1 mg/kg, 3 h, dose level Low",9.4%
same,WBC,"1 mg/kg, 3 h, dose level Low",96.2 x10_2/uL
same,KIDNEY_L,"1 mg/kg, 3 h, dose level Low",0.8 g
same,KIDNEY_R,"1 mg/kg, 3 h, dose level Low",0.8 g
same,KIDNEY_TOTAL,"1 mg/kg, 3 h, dose level Low",1.6 g
same,LIVER,"1 mg/kg, 3 h, dose level Low",8.5 g
same,ALP,"1 mg/kg, 3 h, dose level Low",1630.2 IU/L
same,ALT,"1 mg/kg, 3 h, dose level Low",49 IU/L
same,AST,"1 mg/kg, 3 h, dose level Low",78.4 IU/L
same,BUN,"1 mg/kg, 3 h, dose level Low",11 mg/dL
same,CRE,"1 mg/kg, 3 h, dose level Low",0.2 mg/dL
same,Cl,"1 mg/kg, 3 h, dose level Low",106 meq/L
same,IP,"1 mg/kg, 3 h, dose level Low",9.2 mg/dL
same,LDH,"1 mg/kg, 3 h, dose level Low",54.2 IU/L
same,PL,"1 mg/kg, 3 h, dose level Low",146.4 mg/dL
same,RALB,"1 mg/kg, 3 h, dose level Low",2.6 g/dL
same,TBIL,"1 mg/kg, 3 h, dose level Low",0.038 mg/dL
same,TC,"1 mg/kg, 3 h, dose level Low",77.6 mg/dL
same,TP,"1 mg/kg, 3 h, dose level Low",5.5 g/dL
same,TERMINAL_BW,"1 mg/kg, 6 h, dose level Low",195.9 g
same,APTT,"1 mg/kg, 6 h, dose level Low",15.3 s
same,Bas,"1 mg/kg, 6 h, dose level Low",0%
same,Eos,"1 mg/kg, 6 h, dose level Low",1%
same,Fbg,"1 mg/kg, 6 h, dose level Low",262.8 mg/dL
same,Hb,"1 mg/kg, 6 h, dose level Low",12.9 g/dL
same,Ht,"1 mg/kg, 6 h, dose level Low",38.6%
same,Lym,"1 mg/kg, 6 h, dose level Low",68.6%
same,MCH,"1 mg/kg, 6 h, dose level Low",21.8 pg
same,MCHC,"1 mg/kg, 6 h, dose level Low",33.5%
same,MCV,"1 mg/kg, 6 h, dose level Low",65.2 fL
same,Mono,"1 mg/kg, 6 h, dose level Low",2.4%
same,PT,"1 mg/kg, 6 h, dose level Low",12.4 s
same,Plat,"1 mg/kg, 6 h, dose level Low",110.9 x10_4/uL
same,RBC,"1 mg/kg, 6 h, dose level Low",591.6 x10_4/ul
same,Ret,"1 mg/kg, 6 h, dose level Low",9.8%
same,WBC,"1 mg/kg, 6 h, dose level Low",83.7 x10_2/uL
same,KIDNEY_L,"1 mg/kg, 6 h, dose level Low",0.8 g
same,KIDNEY_R,"1 mg/kg, 6 h, dose level Low",0.8 g
same,KIDNEY_TOTAL,"1 mg/kg, 6 h, dose level Low",1.7 g
same,LIVER,"1 mg/kg, 6 h, dose level Low",8 g
same,ALP,"1 mg/kg, 6 h, dose level Low",1545.4 IU/L
same,ALT,"1 mg/kg, 6 h, dose level Low",40.8 IU/L
same,AST,"1 mg/kg, 6 h, dose level Low",80.8 IU/L
same,BUN,"1 mg/kg, 6 h, dose level Low",8 mg/dL
same,CRE,"1 mg/kg, 6 h, dose level Low",0.2 mg/dL
same,Ca,"1 mg/kg, 6 h, dose level Low",10.5 mg/dL
same,Cl,"1 mg/kg, 6 h, dose level Low",109.4 meq/L
same,DBIL,"1 mg/kg, 6 h, dose level Low",0.01 mg/dL
same,IP,"1 mg/kg, 6 h, dose level Low",10 mg/dL
same,K,"1 mg/kg, 6 h, dose level Low",4 meq/L
same,LDH,"1 mg/kg, 6 h, dose level Low",42.2 IU/L
same,Na,"1 mg/kg, 6 h, dose level Low",144.6 meq/L
same,PL,"1 mg/kg, 6 h, dose level Low",112 mg/dL
same,RALB,"1 mg/kg, 6 h, dose level Low",2.4 g/dL
same,TBIL,"1 mg/kg, 6 h, dose level Low",0.04 mg/dL
same,TC,"1 mg/kg, 6 h, dose level Low",55 mg/dL
same,TP,"1 mg/kg, 6 h, dose level Low",5.2 g/dL
same,TERMINAL_BW,"1 mg/kg, 9 h, dose level Low",196.1 g
same,APTT,"1 mg/kg, 9 h, dose level Low",15.5 s
same,Bas,"1 mg/kg, 9 h, dose level Low",0%
same,Eos,"1 mg/kg, 9 h, dose level Low",0.8%
same,Fbg,"1 mg/kg, 9 h, dose level Low",265.6 mg/dL
same,Hb,"1 mg/kg, 9 h, dose level Low",12.7 g/dL
same,Ht,"1 mg/kg, 9 h, dose level Low",37.6%
same,Lym,"1 mg/kg, 9 h, dose level Low",75.4%
same,MCH,"1 mg/kg, 9 h, dose level Low",21.9 pg
same,MCHC,"1 mg/kg, 9 h, dose level Low",33.7%
same,MCV,"1 mg/kg, 9 h, dose level Low",65.1 fL
same,Mono,"1 mg/kg, 9 h, dose level Low",2.4%
same,PT,"1 mg/kg, 9 h, dose level Low",12.8 s
same,Plat,"1 mg/kg, 9 h, dose level Low",110 x10_4/uL
same,RBC,"1 mg/kg, 9 h, dose level Low",578.2 x10_4/ul
same,Ret,"1 mg/kg, 9 h, dose level Low",9.3%
same,WBC,"1 mg/kg, 9 h, dose level Low",75.5 x10_2/uL
same,KIDNEY_L,"1 mg/kg, 9 h, dose level Low",0.9 g
same,KIDNEY_R,"1 mg/kg, 9 h, dose level Low",0.8 g
same,KIDNEY_TOTAL,"1 mg/kg, 9 h, dose level Low",1.7 g
same,LIVER,"1 mg/kg, 9 h, dose level Low",7.7 g
same,ALP,"1 mg/kg, 9 h, dose level Low",1698.8 IU/L
same,ALT,"1 mg/kg, 9 h, dose level Low",37.6 IU/L
same,AST,"1 mg/kg, 9 h, dose level Low",75.6 IU/L
same,BUN,"1 mg/kg, 9 h, dose level Low",9.2 mg/dL
same,CRE,"1 mg/kg, 9 h, dose level Low",0.2 mg/dL
same,Ca,"1 mg/kg, 9 h, dose level Low",10.6 mg/dL
same,Cl,"1 mg/kg, 9 h, dose level Low",109 meq/L
same,DBIL,"1 mg/kg, 9 h, dose level Low",0.012 mg/dL
same,IP,"1 mg/kg, 9 h, dose level Low",10.2 mg/dL
same,K,"1 mg/kg, 9 h, dose level Low",3.8 meq/L
same,LDH,"1 mg/kg, 9 h, dose level Low",40.6 IU/L
same,Na,"1 mg/kg, 9 h, dose level Low",145.2 meq/L
same,PL,"1 mg/kg, 9 h, dose level Low",96.4 mg/dL
same,RALB,"1 mg/kg, 9 h, dose level Low",2.5 g/dL
same,TBIL,"1 mg/kg, 9 h, dose level Low",0.042 mg/dL
same,TC,"1 mg/kg, 9 h, dose level Low",44.8 mg/dL
same,TP,"1 mg/kg, 9 h, dose level Low",5.2 g/dL
same,gamma-GTP,"1 mg/kg, 9 h, dose level Low",1.2 IU/L
same,TERMINAL_BW,"1 mg/kg, 24 h, dose level Low",200.1 g
same,APTT,"1 mg/kg, 24 h, dose level Low",14.9 s
same,Bas,"1 mg/kg, 24 h, dose level Low",0%
same,Eos,"1 mg/kg, 24 h, dose level Low",1%
same,Fbg,"1 mg/kg, 24 h, dose level Low",224.6 mg/dL
same,Hb,"1 mg/kg, 24 h, dose level Low",13.1 g/dL
same,Lym,"1 mg/kg, 24 h, dose level Low",75.2%
same,MCHC,"1 mg/kg, 24 h, dose level Low",34%
same,MCV,"1 mg/kg, 24 h, dose level Low",62.5 fL
same,Mono,"1 mg/kg, 24 h, dose level Low",3.4%
same,PT,"1 mg/kg, 24 h, dose level Low",13.2 s
same,Plat,"1 mg/kg, 24 h, dose level Low",107.2 x10_4/uL
same,RBC,"1 mg/kg, 24 h, dose level Low",619.8 x10_4/ul
same,Ret,"1 mg/kg, 24 h, dose level Low",7.6%
same,WBC,"1 mg/kg, 24 h, dose level Low",93.7 x10_2/uL
same,KIDNEY_L,"1 mg/kg, 24 h, dose level Low",0.9 g
same,KIDNEY_R,"1 mg/kg, 24 h, dose level Low",0.9 g
same,KIDNEY_TOTAL,"1 mg/kg, 24 h, dose level Low",1.8 g
same,LIVER,"1 mg/kg, 24 h, dose level Low",9.3 g
same,ALP,"1 mg/kg, 24 h, dose level Low",2023.4 IU/L
same,AST,"1 mg/kg, 24 h, dose level Low",74.8 IU/L
same,CRE,"1 mg/kg, 24 h, dose level Low",0.2 mg/dL
same,Ca,"1 mg/kg, 24 h, dose level Low",10.8 mg/dL
same,Cl,"1 mg/kg, 24 h, dose level Low",106.4 meq/L
same,DBIL,"1 mg/kg, 24 h, dose level Low",0.024 mg/dL
same,IP,"1 mg/kg, 24 h, dose level Low",7.4 mg/dL
same,K,"1 mg/kg, 24 h, dose level Low",4 meq/L
same,LDH,"1 mg/kg, 24 h, dose level Low",59.6 IU/L
same,Na,"1 mg/kg, 24 h, dose level Low",142.8 meq/L
same,PL,"1 mg/kg, 24 h, dose level Low",113.6 mg/dL
same,RALB,"1 mg/kg, 24 h, dose level Low",2.5 g/dL
same,TBIL,"1 mg/kg, 24 h, dose level Low",0.034 mg/dL
same,TC,"1 mg/kg, 24 h, dose level Low",40.8 mg/dL
same,TP,"1 mg/kg, 24 h, dose level Low",5.3 g/dL
same,gamma-GTP,"1 mg/kg, 24 h, dose level Low",1.2 IU/L

# Source: ChEMBL document CHEMBL3885861, “Open TG-GATES”
